Measured values reported in ChEMBL document CHEMBL1155003, “Halicyclamine A, a marine spongean alkaloid as a lead for anti-tuberculosis agent” (2008).
Values after ≈ are worked out from the molar mass of the structure shown. Active and inactive are the calls of the source. No cut-off for these calls is given here.

Legend:
[1] = system: Mycobacterium tuberculosis; assay: Bactericidal activity against Mycobacterium bovis BCG assessed as decrease in CFU at 10 ug/ml after 4 weeks; assay type: functional, organism-based; conditions: variant bovis BCG
[2] = system: Mycobacterium tuberculosis; assay: Antitubercular activity against Mycobacterium bovis BCG under aerobic condition after 7 days by MTT method; assay type: functional; conditions: variant bovis BCG, 168 h
[3] = system: Mycobacterium tuberculosis; assay: Antitubercular activity against Mycobacterium bovis BCG under hypoxic condition after 14 days by MTT method; assay type: functional; conditions: variant bovis BCG, 336 h

Row | SMILES | Activity [1] | MIC [2] [µg/mL] | MIC [3] [µg/mL]
1 | C1=C2CCCC/C=C\C=C\CCN3CC[C@@H]4[C@H](CCCCCC/C=C\C=C/CCN(C2)C[C@H]14)C3 [HALICYCLAMINE A] | Active | 1 (≈ 2.16 µM) | 1 (≈ 2.16 µM)
2 | NNC(=O)c1ccncc1 [ISONIAZID] | – | 0.03 (≈ 0.219 µM) | > 100
